Active and inactive are the calls of the source. The rule behind the calls is not given here.
Tests used:
U-937 = assay: Antiproliferative activity against human U937 cells after 24 hrs by MTT assay; format: functional
[1] = biological target: RAC-alpha serine/threonine-protein kinase (Homo sapiens) (UniProt P31749); assay: Inhibition of AKT1 (unknown origin) at 10 uM after 40 mins by scintillation counting analysis
[2] = biological target: ALK tyrosine kinase receptor (Homo sapiens) (UniProt Q9UM73); assay: Inhibition of ALK (unknown origin) at 10 uM after 40 mins by scintillation counting analysis
[3] = biological target: Aurora kinase A (Homo sapiens) (UniProt O14965); assay: Inhibition of Aurora A (unknown origin) at 10 uM after 40 mins by scintillation counting analysis
[4] = biological target: Serine/threonine-protein kinase B-raf (Homo sapiens, UniProt P15056); assay: Inhibition of BRAF (unknown origin) at 10 uM after 40 mins by scintillation counting analysis
[5] = test system: Serine/threonine-protein kinase B-raf (Homo sapiens), P15056 [V600E]; assay: Inhibition of BRAF V599E mutant (unknown origin) at 10 uM after 40 mins by scintillation counting analysis
[6] = biological target: Mast/stem cell growth factor receptor Kit (Homo sapiens) (UniProt P10721); assay: Inhibition of c-Kit (unknown origin) at 10 uM after 40 mins by scintillation counting analysis
[7] = biological target: Fibroblast growth factor receptor 2 (Homo sapiens) (UniProt P21802); assay: Inhibition of FGFR2 (unknown origin) at 10 uM after 40 mins by scintillation counting analysis
[8] = biological target: Fibroblast growth factor receptor 3 (Homo sapiens) (UniProt P22607); assay: Inhibition of FGFR3 (unknown origin) at 10 uM after 40 mins by scintillation counting analysis
Fibroblast growth factor receptor 3 (Homo sapiens), sequence (P22607 23-806 limits assumed): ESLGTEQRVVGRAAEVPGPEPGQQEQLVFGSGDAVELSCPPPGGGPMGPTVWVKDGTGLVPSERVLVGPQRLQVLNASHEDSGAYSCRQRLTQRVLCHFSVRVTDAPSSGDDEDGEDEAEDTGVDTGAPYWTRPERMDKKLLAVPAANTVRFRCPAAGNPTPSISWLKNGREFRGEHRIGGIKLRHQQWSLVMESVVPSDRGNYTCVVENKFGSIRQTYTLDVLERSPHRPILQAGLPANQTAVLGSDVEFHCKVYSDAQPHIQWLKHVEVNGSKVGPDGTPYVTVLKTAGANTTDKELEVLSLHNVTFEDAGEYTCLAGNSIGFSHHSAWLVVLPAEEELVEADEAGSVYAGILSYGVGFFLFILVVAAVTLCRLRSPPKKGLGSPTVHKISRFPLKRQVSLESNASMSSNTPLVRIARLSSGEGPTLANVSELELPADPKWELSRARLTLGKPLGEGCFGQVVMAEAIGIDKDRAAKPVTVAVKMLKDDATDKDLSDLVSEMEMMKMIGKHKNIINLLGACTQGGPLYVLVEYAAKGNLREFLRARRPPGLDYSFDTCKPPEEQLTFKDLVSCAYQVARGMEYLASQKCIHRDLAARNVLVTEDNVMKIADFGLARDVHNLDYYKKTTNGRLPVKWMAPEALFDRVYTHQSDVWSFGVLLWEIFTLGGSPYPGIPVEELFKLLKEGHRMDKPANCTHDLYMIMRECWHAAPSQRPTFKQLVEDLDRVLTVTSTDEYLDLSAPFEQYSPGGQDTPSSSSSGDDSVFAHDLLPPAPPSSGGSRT

[9] = biological target: Receptor-type tyrosine-protein kinase FLT3 (Homo sapiens) (UniProt P36888); assay: Inhibition of FLT3 (unknown origin) at 10 uM after 40 mins by scintillation counting analysis
Receptor-type tyrosine-protein kinase FLT3 (Homo sapiens), sequence (P36888 whole entry): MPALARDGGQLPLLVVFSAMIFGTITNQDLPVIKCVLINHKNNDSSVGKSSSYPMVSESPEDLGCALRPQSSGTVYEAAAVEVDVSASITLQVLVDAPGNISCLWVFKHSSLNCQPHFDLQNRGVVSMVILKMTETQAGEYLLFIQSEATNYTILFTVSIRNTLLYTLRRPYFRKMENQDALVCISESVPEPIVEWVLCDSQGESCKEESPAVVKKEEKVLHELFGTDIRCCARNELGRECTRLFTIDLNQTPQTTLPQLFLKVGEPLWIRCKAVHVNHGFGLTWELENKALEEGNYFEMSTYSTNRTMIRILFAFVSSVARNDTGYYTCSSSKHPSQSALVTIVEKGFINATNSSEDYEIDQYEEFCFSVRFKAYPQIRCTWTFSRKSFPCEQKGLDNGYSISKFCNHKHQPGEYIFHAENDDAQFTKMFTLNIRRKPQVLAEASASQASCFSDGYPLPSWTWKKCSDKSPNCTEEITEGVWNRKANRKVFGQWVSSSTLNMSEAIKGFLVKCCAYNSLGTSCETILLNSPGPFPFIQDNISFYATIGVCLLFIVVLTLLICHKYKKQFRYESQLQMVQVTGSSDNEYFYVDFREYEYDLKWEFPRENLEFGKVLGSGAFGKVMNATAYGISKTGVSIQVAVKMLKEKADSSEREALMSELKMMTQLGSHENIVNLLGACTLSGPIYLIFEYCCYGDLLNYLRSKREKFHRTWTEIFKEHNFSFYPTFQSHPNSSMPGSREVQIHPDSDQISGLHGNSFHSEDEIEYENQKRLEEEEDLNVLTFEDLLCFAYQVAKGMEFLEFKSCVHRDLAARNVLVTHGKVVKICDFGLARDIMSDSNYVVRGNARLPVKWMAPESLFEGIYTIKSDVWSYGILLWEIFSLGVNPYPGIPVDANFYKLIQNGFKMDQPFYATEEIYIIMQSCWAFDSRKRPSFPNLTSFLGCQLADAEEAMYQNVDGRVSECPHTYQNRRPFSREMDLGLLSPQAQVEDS

[10] = biological target: T1, Macrophage colony-stimulating factor 1 receptor (Homo sapiens, UniProt P07333); assay: Inhibition of FMS (unknown origin) at 10 uM after 40 mins by scintillation counting analysis
T1 sequence (P07333 whole entry): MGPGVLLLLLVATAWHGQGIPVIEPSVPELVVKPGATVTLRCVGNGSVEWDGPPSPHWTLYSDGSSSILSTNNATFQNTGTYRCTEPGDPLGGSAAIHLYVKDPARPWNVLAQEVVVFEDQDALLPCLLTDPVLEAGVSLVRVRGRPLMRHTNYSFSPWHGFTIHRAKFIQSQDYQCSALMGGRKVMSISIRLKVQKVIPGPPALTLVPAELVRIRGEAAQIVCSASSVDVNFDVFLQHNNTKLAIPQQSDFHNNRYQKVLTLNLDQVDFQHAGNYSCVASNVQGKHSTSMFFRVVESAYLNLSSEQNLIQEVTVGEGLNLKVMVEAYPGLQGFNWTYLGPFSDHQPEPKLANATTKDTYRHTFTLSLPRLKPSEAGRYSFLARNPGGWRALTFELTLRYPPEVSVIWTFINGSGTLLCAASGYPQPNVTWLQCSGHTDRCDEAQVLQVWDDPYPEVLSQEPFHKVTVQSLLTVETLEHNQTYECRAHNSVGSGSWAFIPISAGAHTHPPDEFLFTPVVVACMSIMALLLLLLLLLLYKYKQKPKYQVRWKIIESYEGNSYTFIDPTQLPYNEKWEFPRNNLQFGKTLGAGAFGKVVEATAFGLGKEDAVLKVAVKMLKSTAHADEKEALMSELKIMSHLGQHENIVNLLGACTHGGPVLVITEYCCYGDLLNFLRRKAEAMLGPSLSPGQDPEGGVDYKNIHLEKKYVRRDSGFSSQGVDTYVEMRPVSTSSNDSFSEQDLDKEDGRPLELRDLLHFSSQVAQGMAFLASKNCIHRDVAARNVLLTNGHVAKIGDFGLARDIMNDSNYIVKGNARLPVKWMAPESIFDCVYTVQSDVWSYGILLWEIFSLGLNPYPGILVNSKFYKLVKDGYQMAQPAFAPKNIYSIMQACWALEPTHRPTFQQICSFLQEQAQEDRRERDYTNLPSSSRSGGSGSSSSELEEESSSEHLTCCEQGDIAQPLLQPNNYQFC

[11] = biological target: Glycogen synthase kinase-3 beta (Homo sapiens) (UniProt P49841); assay: Inhibition of GSK3b (unknown origin) at 10 uM after 40 mins by scintillation counting analysis
[12] = biological target: Insulin-like growth factor 1 receptor (Homo sapiens) (UniProt P08069); assay: Inhibition of IGF1R (unknown origin) at 10 uM after 40 mins by scintillation counting analysis
[13] = biological target: Tyrosine-protein kinase JAK3 (Homo sapiens) (UniProt P52333); assay: Inhibition of Jak3 (unknown origin) at 10 uM after 40 mins by scintillation counting analysis
Tyrosine-protein kinase JAK3 (Homo sapiens), sequence (P52333 whole entry): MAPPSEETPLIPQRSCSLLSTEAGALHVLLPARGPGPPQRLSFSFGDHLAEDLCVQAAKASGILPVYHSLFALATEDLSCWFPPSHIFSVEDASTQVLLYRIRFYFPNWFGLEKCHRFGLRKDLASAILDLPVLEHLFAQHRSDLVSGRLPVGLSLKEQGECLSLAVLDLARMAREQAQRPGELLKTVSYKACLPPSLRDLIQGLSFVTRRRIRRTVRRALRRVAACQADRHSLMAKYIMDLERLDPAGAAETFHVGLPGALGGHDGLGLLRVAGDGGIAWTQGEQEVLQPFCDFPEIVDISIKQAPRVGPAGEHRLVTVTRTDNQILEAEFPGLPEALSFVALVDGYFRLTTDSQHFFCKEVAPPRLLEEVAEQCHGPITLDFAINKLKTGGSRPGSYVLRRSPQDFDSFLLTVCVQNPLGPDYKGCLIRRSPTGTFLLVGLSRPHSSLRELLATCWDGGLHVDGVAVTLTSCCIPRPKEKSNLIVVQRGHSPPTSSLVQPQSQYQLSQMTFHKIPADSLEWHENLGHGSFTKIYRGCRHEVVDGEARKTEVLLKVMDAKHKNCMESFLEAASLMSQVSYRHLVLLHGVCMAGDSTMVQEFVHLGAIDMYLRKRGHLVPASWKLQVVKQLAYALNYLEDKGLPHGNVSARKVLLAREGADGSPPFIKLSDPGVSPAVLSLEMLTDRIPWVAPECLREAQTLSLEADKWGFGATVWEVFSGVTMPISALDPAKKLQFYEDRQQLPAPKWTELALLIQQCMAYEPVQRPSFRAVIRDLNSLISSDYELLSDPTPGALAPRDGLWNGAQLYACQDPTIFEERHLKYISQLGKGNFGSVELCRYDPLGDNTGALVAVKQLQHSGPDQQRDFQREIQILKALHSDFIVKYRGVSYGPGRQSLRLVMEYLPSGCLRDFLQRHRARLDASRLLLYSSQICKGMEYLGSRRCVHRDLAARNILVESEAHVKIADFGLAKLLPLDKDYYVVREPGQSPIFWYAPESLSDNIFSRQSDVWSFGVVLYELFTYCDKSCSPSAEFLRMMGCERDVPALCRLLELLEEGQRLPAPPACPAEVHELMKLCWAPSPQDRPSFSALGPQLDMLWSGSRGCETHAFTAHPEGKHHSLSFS

[14] = biological target: Vascular endothelial growth factor receptor 2 (Homo sapiens) (UniProt P35968); assay: Inhibition of VEGFR2 (unknown origin) at 10 uM after 40 mins by scintillation counting analysis
[15] = biological target: Tyrosine-protein kinase Lyn (Homo sapiens, UniProt P07948); assay: Inhibition of Lyn (unknown origin) at 10 uM after 40 mins by scintillation counting analysis
[16] = biological target: Dual specificity mitogen-activated protein kinase kinase 1 (Homo sapiens) (UniProt Q02750); assay: Inhibition of MEK1 (unknown origin) at 10 uM after 40 mins by scintillation counting analysis
Dual specificity mitogen-activated protein kinase kinase 1 (Homo sapiens), sequence (Q02750 whole entry): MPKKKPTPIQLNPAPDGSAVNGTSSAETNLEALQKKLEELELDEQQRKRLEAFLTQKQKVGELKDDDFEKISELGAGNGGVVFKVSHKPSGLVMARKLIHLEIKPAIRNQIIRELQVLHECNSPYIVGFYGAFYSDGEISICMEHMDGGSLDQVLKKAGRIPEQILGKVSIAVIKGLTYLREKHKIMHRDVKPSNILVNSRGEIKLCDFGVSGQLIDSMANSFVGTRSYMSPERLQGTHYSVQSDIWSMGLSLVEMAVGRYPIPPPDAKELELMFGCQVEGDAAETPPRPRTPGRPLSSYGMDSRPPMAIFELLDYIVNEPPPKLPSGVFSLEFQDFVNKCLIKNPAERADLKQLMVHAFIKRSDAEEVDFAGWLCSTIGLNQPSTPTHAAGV

[17] = biological target: Serine/threonine-protein kinase mTOR (Homo sapiens, UniProt P42345); assay: Inhibition of mTOR (unknown origin) at 10 uM after 40 mins by scintillation counting analysis
[18] = biological target: cAMP-dependent protein kinase (PKA) (Homo sapiens) (UniProt P22694+P17612+P22612); assay: Inhibition of PKA (unknown origin) at 10 uM after 40 mins by scintillation counting analysis; format: protein assay
[19] = biological target: Serine/threonine-protein kinase PLK1 (Homo sapiens) (UniProt P53350); assay: Inhibition of PLK1 (unknown origin) at 10 uM after 40 mins by scintillation counting analysis
[20] = biological target: RAF proto-oncogene serine/threonine-protein kinase (Homo sapiens, UniProt P04049); assay: Inhibition of RAF1 (unknown origin) at 10 uM after 40 mins by scintillation counting analysis
RAF proto-oncogene serine/threonine-protein kinase, sequence (P04049 whole entry): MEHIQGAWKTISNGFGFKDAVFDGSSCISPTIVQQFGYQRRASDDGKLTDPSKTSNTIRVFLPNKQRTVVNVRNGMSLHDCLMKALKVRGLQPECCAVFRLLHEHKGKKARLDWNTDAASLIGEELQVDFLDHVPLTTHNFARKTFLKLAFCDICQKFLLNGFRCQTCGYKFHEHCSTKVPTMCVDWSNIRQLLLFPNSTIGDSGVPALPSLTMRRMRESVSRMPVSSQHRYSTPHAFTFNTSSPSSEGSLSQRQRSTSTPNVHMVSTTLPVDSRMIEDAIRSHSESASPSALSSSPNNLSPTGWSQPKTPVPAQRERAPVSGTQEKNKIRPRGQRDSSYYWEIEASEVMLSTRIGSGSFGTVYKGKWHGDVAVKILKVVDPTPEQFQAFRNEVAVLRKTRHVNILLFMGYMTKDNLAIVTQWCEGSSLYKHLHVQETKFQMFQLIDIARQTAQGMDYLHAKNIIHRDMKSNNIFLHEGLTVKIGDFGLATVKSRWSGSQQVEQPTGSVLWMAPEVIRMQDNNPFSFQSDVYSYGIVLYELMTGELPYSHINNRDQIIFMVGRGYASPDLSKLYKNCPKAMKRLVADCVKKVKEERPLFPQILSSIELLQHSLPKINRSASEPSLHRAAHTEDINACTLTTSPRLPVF

[21] = biological target: Macrophage-stimulating protein receptor (Homo sapiens) (UniProt Q04912); assay: Inhibition of RON (unknown origin) at 10 uM after 40 mins by scintillation counting analysis
[22] = biological target: Proto-oncogene tyrosine-protein kinase ROS (Homo sapiens) (UniProt P08922); assay: Inhibition of ROS1 (unknown origin) at 10 uM after 40 mins by scintillation counting analysis
[23] = biological target: Tyrosine-protein kinase SYK (Homo sapiens) (UniProt P43405); assay: Inhibition of SYK (unknown origin) at 10 uM after 40 mins by scintillation counting analysis
[24] = biological target: T1, Macrophage colony-stimulating factor 1 receptor; assay: Inhibition of FMS (unknown origin) after 40 mins by scintillation counting analysis
[25] = biological target: Mitogen-activated protein kinase 8 (Homo sapiens) (UniProt P45983); assay: Inhibition of JNK1 (unknown origin) at 10 uM after 40 mins by scintillation counting analysis
[26] = biological target: Tyrosine-protein kinase Lck (Homo sapiens) (UniProt P06239); assay: Inhibition of LCK (unknown origin) at 10 uM after 40 mins by scintillation counting analysis
[27] = biological target: Proto-oncogene tyrosine-protein kinase Src (Homo sapiens) (UniProt P12931); assay: Inhibition of c-SRC (unknown origin) at 10 uM after 40 mins by scintillation counting analysis
[28] = biological target: Tyrosine-protein kinase JAK1 (Homo sapiens) (UniProt P23458); assay: Inhibition of JAK1 (unknown origin) at 10 uM after 40 mins by scintillation counting analysis
[29] = biological target: Tyrosine-protein kinase ITK/TSK (Homo sapiens) (UniProt Q08881); assay: Inhibition of ITK (unknown origin) at 10 uM after 40 mins by scintillation counting analysis
[30] = biological target: Vascular endothelial growth factor receptor 1 (Homo sapiens) (UniProt P17948); assay: Inhibition of FLT1 (unknown origin) at 10 uM after 40 mins by scintillation counting analysis
[31] = biological target: Vascular endothelial growth factor receptor 3 (Homo sapiens) (UniProt P35916); assay: Inhibition of FLT4 (unknown origin) at 10 uM after 40 mins by scintillation counting analysis
[32] = biological target: Protein kinase C (PKC) (Homo sapiens) (UniProt O94806+P41743+P17252+P05129+Q05655+P05771+Q05513+Q02156+P24723+Q15139+Q04759); assay: Inhibition of PKC (unknown origin) at 10 uM after 40 mins by scintillation counting analysis
Homo sapiens = species on record: Homo sapiens; assay: Inhibition of Pi3K (unknown origin) at 10 uM after 40 mins by scintillation counting analysis
[33] = biological target: Platelet-derived growth factor receptor alpha (Homo sapiens) (UniProt P16234); assay: Inhibition of PDGFRalpha (unknown origin) at 10 uM after 40 mins by scintillation counting analysis
[34] = biological target: Platelet-derived growth factor receptor beta (Homo sapiens) (UniProt P09619); assay: Inhibition of PDGFRbeta (unknown origin) at 10 uM after 40 mins by scintillation counting analysis

**Q.** What does the source list for `Cc1ccccc1C(=O)Nc1cnoc1C`?
**A.** GI50 (U-937): Active; inhibition [1]: inactive; inhibition [2]: inactive; inhibition [3]: inactive; inhibition [4]: inactive; inhibition [5]: inactive; inhibition [6]: inactive; inhibition [7]: inactive; inhibition [8]: inactive; inhibition [9]: inactive; inhibition [10]: inactive; inhibition [11]: inactive; inhibition [12]: inactive; inhibition [13]: inactive; inhibition [14]: inactive; inhibition [15]: inactive; inhibition [16]: inactive; inhibition [17]: inactive; inhibition [18]: inactive; inhibition [19]: inactive; inhibition [20]: inactive; inhibition [21]: inactive; inhibition [22]: inactive; inhibition [23]: inactive; IC50 [24]: 216 nM; inhibition [25]: inactive; inhibition [26]: inactive; inhibition [27]: inactive; inhibition [28]: inactive; inhibition [29]: inactive; inhibition [30]: inactive; inhibition [31]: inactive; inhibition [32]: inactive; inhibition (Homo sapiens): inactive; inhibition [33]: inactive; inhibition [34]: inactive
